Columns and labels:
[1] = tested on: leucine transporter (LeuT); assay: LeuT stability, [3H]-Leu binding by scintillation proximity assay (SPA); type: biochemical, Aquifex aeolicus; details: CMC+0.2 wt %, room temperature, 12 days
Experimental: The ability of PSAs, PSEs or TPSs (TPS-A/E/ELs) to stabilize leucine transporter (LeuT), a membrane protein, was measured. LeuT purified by DDM was mixed with a solution containing each amphipathic compound, and the mixture was incubated at room temperature for 12 days. The activity of LeuT proteins was measured by scintillation proximity assay (SPA) using a ligand ([^3H]-Leu), and the concentration of PSAs, PSEs, TPSs or DDM was (a) CMC+0.04 wt %, or (b) CMC+0.2 wt %.
Specifically, LeuT stability measurement was performed in the following manner. According to the results of Example 6, PSA-C10, PSA-C11, PSE-C9, PSE-C11, and PSE-C13 were selected as the amphipathic compounds of PSAs and PSEs except for PSA-C9, and wild type leucine transporter (LeuT) was purified from Aquifex aeolicus using TPS-As, TPS-Es and TPS-EL, according to the method described in G. Deckert et al. (Nature 1998, 392, 353-358.). E. coli C41 (DE3) was transformed with a pET16b plasmid containing a gene construct encoding C-terminal 8×His-tagged LeuT, and thus LeuT was expressed in the form of a fusion protein having 8×His tags at the C-terminus in the transformed E. coli C41 (the expression plasmid was provided by Dr. E. Gouaux, Vollum Institute, Portland, Oreg., USA). Briefly, bacterial membranes containing LeuT were treated with 1.0 wt % DDM, and proteins were bound to Ni^2+-NTA resin (Life Technologies, Denmark). LeuT bound to the resin was eluted using a buffer solution containing 20 mM Tris-HCl (pH 8.0), 1 mM NaCl, 199 mM KCl, 0.05% DDM and 300 mM imidazole. Next, about 1.5 mg/mL of protein stock was diluted 10-fold in an equivalent buffer supplemented with TPS-As, TPS-Es, TPS-ELs, PSAs/PSEs (PSA-C10, PSA-C11, PSE-C9, PSE-C11 and PSE-C13) or DDM (control group) to a final concentration of CMC+0.04 wt % or CMC+0.2 wt % without DDM and imidazole. The protein samples were stored at room temperature and centrifuged at designated times. Protein activity was determined by measuring the degree of binding to [^3H]-Leu using scintillation proximity assay (SPA) (M. Quick et al., Proc. Natl, Acad. Sci. U.S.A. 2007, 104, 3603-3608.). Briefly, SPA was performed with 5 μL of each protein sample dissolved in a buffer containing 450 mM NaCl and each test compound. The SPA reaction was performed in the presence of 20 nM [^3H]-Leu and copper chelate (His-Tag) YSi beads (both were purchased from PerkinElmer, Denmark). The degree of binding to [^3H]-Leu was measured using a MicroBeta liquid scintillation counter (PerkinElmer).

[2] = critical micelle concentration (CMC) by hydrophobic fluorescent staining with diphenylhexatriene (DPH); type: physicochemical
Excerpt: Methods of measuring CMC are not particularly limited, and methods widely known in the art may be used. For example, a fluorescence staining method using diphenylhexatriene (DPH) may be used.
To characterize PSAs of Preparation Examples 1 to 3 synthesized according to the synthetic method of Example 1; PSEs of Preparation Examples 4 to 7 synthesized according to the synthetic method of Example 2; TPS-Es and TPS-ELs of Preparation Examples 8 to 14 synthesized according to the synthetic method of Example 3; and TPS-As of Preparation Examples 15 to 17 synthesized according to the synthetic method of Example 4, the critical micellar concentrations (CMCs) of PSAs, PSEs and TPSs and the hydrodynamic radii (Rh) of formed micelles were measured.
(§1) Specifically, critical micellar concentrations (CMCs) were measured using hydrophobic fluorescent staining and diphenylhexatriene (DPH), and the hydrodynamic radii (Rh) of micelles formed by each compound at a concentration of 1.0 wt % were measured using dynamic light scattering (DLS). The results were compared with results obtained from an existing amphipathic molecule (detergent), DDM, and are shown in Table 1.

[3] = hydrodynamic radius of micelles by dynamic light scattering (DLS); type: physicochemical; details: compound at 1.0 wt %
Experimental: Methods of measuring the radius of micelles are not particularly limited, and methods widely known in the art may be used. For example, dynamic light scattering (DLS) may be used.
as §1
When measuring, each of PSAs, PSEs and TPSs was used at a concentration of 1.0 wt %.

[4] = molecular target: T1, human β2 adrenergic receptor (β2AR) (Homo sapiens, UniProt P07550); assay: β2AR activity by [3H]-dihydroalprenolol radioactive ligand binding assay; type: biochemical; details: 3 or 5 days at room temperature
T1 construct: Flag; made in house
Experimental: The membrane protein stabilizing ability of receptors (mBBr-β2ARs) solubilized in PSAs or PSEs was evaluated by measuring the binding activity of the receptors to [^3H]-dihydroalprenolol ([^3H]-DHA).
Specifically, radioactive ligand binding assay was performed as follows. β2ARs purified with 0.1 wt % DDM was concentrated to about 10 mg/mL (approximately 200 μM). β2ARs purified with DDM were used to prepare a master binding mixture containing 10 nM [^3H]-dihydroalprenolol (DHA), which was dissolved in 0.2 wt % of DDM, PSA or PSE and supplemented with 0.5 mg/mL BSA. At a concentration of 0.2 pmol, the activity of the receptors purified with the amphipathic compounds was monitored at regular intervals over a 4-day incubation period. Protein samples were incubated on ice for 2 days and then at room temperature for 2 days. Receptor activity was measured by binding assay for dissolved radioactive ligands. The receptors purified with DDM or a novel formulation (PSA-C11, PSE-C11 or PSE-C13) were incubated with 10 nM [^3H]-DHA at room temperature for 30 minutes. The mixture was loaded onto a G-50 column, a solution passed through the column was collected in 1 mL of a binding buffer (100 mM NaCl and 20 mM HEPES (pH 7.5) supplemented with 0.5 mg/mL BSA and 20×CMC amphipathic compounds), and 15 mL of a scintillation fluid was added to the solution. Receptor-bound [^3H]-DHA was measured using a scintillation counter (Beckman). Non-specific binding of [^3H]-DHA was measured by adding 1 μM alprenolol (Sigma) to the same reaction mixture. The binding degree of the receptors to [^3H]-DHA was represented by a column graph.
The ability of TPSs (TPS-As, TPS-Es and TPS-ELs) to stabilize the structures of human β2 adrenergic receptors (β2ARs) and G protein-coupled receptors (GPCRs) was measured. That is, DDM-purified receptors were diluted with a buffer solution containing only each of the TPSs without cholesteryl hemisuccinate (CHS) or a buffer solution containing CHS and DDM. The final concentration of the compounds was CMC+0.2wt %, and the binding activity of the receptors to ligands was evaluated by measuring the degree of binding of the receptors to [^3H]-dihydroalprenolol ([^3H]-DHA).
Specifically, radioactive ligand binding assay was performed as follows. β2ARs were purified with 0.1 wt % DDM (D. M. Rosenbaum et al., Science, 2007, 318, 1266-1273.) and was concentrated to about 10 mg/mL (approximately 200 μM). β2ARs purified with DDM were used to prepare a master binding mixture containing 10 nM [^3H]-dihydroalprenolol (DHA), which was dissolved in 0.2% amphipathic compounds (DDM or TPSs) and supplemented with 0.5 mg/mL BSA. The activity of the receptors purified with the amphipathic compounds was monitored at regular intervals over a 3- to 5-day incubation period. The receptors purified with DDM or TPSs were incubated with 10 nM [^3H]-DHA at room temperature for 30 minutes. The mixture was loaded onto a G-50 column, a solution passed through the column was collected in 1 mL of a binding buffer (100 mM NaCl and 20 mM HEPES (pH 7.5) supplemented with 0.5 mg/mL BSA and 20×CMC of each amphipathic compound), and 15 mL of a scintillation fluid was added to the solution. Receptor-bound [^3H]-DHA was measured using a scintillation counter (Beckman). The binding degree of the receptors to [^3H]-DHA was represented by a column graph.

T1 sequence (P07550 whole entry): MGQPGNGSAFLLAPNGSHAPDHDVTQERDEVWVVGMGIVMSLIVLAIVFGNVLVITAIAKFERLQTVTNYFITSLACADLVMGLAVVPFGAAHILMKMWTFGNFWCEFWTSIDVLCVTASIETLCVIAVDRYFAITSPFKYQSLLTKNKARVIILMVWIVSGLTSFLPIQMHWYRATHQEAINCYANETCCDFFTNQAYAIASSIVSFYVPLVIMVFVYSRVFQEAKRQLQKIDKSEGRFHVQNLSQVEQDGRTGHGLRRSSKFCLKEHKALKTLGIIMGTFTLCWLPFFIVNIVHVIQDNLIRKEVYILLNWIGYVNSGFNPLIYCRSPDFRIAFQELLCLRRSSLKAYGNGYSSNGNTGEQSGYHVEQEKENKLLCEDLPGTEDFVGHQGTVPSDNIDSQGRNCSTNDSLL

Row | LeuT transporter activity retained after 12 days of incubation [1] [%] | CMC [2] [mM] | CMC (wt %) [2] [wt %] | Rh (nm), hydrodynamic radius of micelles [3] [nm] | long-term β2AR activity ([3H]-DHA binding) [4] | SMILES
1 | 40 | – | – | – | – | CCCCCCCCCCC(CCCCCCCCCC)(CO[C@@H]1O[C@H](CO)[C@@H](O[C@H]2O[C@H](CO)[C@@H](O)[C@H](O)[C@H]2O)[C@H](O)[C@H]1O)CO[C@@H]1O[C@H](CO)[C@@H](O[C@H]2O[C@H](CO)[C@@H](O)[C@H](O)[C@H]2O)[C@H](O)[C@H]1O [MNG-3, reference compound]
2 | – | ~0.27 | ~0.0300 | 2.66 ± 0.04 | – | CCCCCCCOCC(COCCCCCCC)O[C@@H]1OC(CO[C@@H]2OC(CO)[C@@H](O)C(O)C2O)[C@@H](O[C@@H]2OC(CO)[C@@H](O)C(O)C2O)C(O[C@@H]2OC(CO)[C@@H](O)C(O)C2O)C1O[C@@H]1OC(CO)[C@@H](O)C(O)C1O (some centres unmarked) [PSE-C7]
3 | – | ~0.020 | ~0.0024 | 2.9 ± 0.05 | – | CCCCCCOCC(COCCCCCC)(COCCCCCC)CO[C@@H]1OC(CO[C@@H]2OC(CO)[C@@H](O)C(O)C2O)[C@@H](O[C@@H]2OC(CO)[C@@H](O)C(O)C2O)C(O[C@@H]2OC(CO)[C@@H](O)C(O)C2O)C1O[C@@H]1OC(CO)[C@@H](O)C(O)C1O (some centres unmarked) [TPS-E6]
4 | – | ~0.012 | ~0.0015 | 13.0 ± 0.8 | – | CCCCCCCOCC(COCCCCCCC)(COCCCCCCC)CO[C@@H]1OC(CO[C@@H]2OC(CO)[C@@H](O)C(O)C2O)[C@@H](O[C@@H]2OC(CO)[C@@H](O)C(O)C2O)C(O[C@@H]2OC(CO)[C@@H](O)C(O)C2O)C1O[C@@H]1OC(CO)[C@@H](O)C(O)C1O (some centres unmarked) [TPS-E7]
5 | – | ~0.006 | ~0.0009 | 4.5 ± 0.39 | – | CCCCCCCCOCC(COCCCCCCCC)(COCCCCCCCC)CO[C@@H]1OC(COCCCO[C@@H]2OC(CO)[C@@H](O)C(O)C2O)[C@@H](OCCCO[C@@H]2OC(CO)[C@@H](O)C(O)C2O)C(OCCCO[C@@H]2OC(CO)[C@@H](O)C(O)C2O)C1OCCCO[C@@H]1OC(CO)[C@@H](O)C(O)C1O (some centres unmarked) [TPS-E8L]
6 | – | ~0.004 | ~0.0006 | 4.6 ± 0.18 | significantly better than that of DDM | CCCCCCCCCOCC(COCCCCCCCCC)(COCCCCCCCCC)CO[C@@H]1OC(COCCCO[C@@H]2OC(CO)[C@@H](O)C(O)C2O)[C@@H](OCCCO[C@@H]2OC(CO)[C@@H](O)C(O)C2O)C(OCCCO[C@@H]2OC(CO)[C@@H](O)C(O)C2O)C1OCCCO[C@@H]1OC(CO)[C@@H](O)C(O)C1O (some centres unmarked) [TPS-E9L]

From patent publication US20190169218A1, “AMPHIPATHIC COMPOUND HAVING NOVEL PENTA-SACCHARIDE HYDROPHILIC GROUP AND USE THEREOF” (Industry-University Cooperation Foundation Hanyang …, priority 2016, published 2019)
